According to patent US20080220103A1, “METHOD FOR TREATING/CONTROLLING/KILLING FUNGI AND BACTERIA ON LIVING ANIMALS” (priority 2005, published 2008):
Values after ≈ are worked out from the molar mass of the structure shown. Values belong to the molecule of their own block, whether it stands above or below them.

Columns and labels:
All Yeasts = assay: Minimum fungicidal concentration, yeasts; format: cell-based
Procedure: Minimum fungicidal concentration (MFC): The minimum fungicidal concentrations of various agents were determined using the technique described by Canton et al. (Antimicrob Agents Chemother. 2004 8:2477-82). In that method, fungal conidia were collected following growth on potato dextrose agar (PDA) plates and were used to inoculate 96-well plates containing different concentrations of agents. Following incubation at 35° C. for 4 days (for dermatophytes) or 24 hours (for yeast), wells showing no visible growth were cultured to determine the MFC (defined as the lowest concentration of a given agent that kills>99.999% of fungal conidia or spores). The MFC value represents the level of the agent at which spores or conidia were killed.

T. rubrum [1] = assay: Pre-treatment insole assay, combination (FIG. 10); format: cell-based, Trichophyton rubrum; conditions: 0.01% synthetic agent, 3% tea tree oil, singly or combined
Procedure: Pre-treatment assays: To evaluate the ability of different agents to prevent fungal contaminations of shoes, PDA plates were prepared on which 10^4 T. mentagrophytes cells were evenly spread. Next, discs from insoles and leather were treated as follows (with either agent or control vehicle): discs were pretreated with a single spray, spraying for 15 second or 30 second. Other discs were immersed in agent or vehicle for 30 min. Following this treatment, discs were air-dried by placing them in a Petri plate for 1 min. These dried discs were then placed (drug side down) on the seeded PDA plates. Plates were then incubated for 4 days at 30° C. Following incubation, fungal growth was recorded. […] Diameter of the clearance zone (CZD) was measured. The relative activity of different agents and control were assessed. […] To determine whether using combination of synthetic compounds and essential oils will allow the use of low concentrations of synthetic drugs, we tested the ability of combination of 0.01% tolnaftate and 3% tea tree oil to prevent shoe contamination using the pre- and post-treatment insole bioassays described above.

[2] = test system: terbinafine-resistant T. rubrum; assay: MIC against terbinafine-resistant isolates; format: cell-based, Trichophyton rubrum
Procedure: Minimum Inhibitory Concentration (MIC): Minimum inhibitory concentrations of synthetic and semisynthetic and natural products against dermatophytes were determined using a modification of the Clinical Laboratory Standards Institute (CLSI, formerly National Committee of Clinical Laboratory Standards, NCCLS) M38A standard method for dermatophytes, while MIC of these agents against Candida species were determined using the CLSI M27-A2 methodology. The method used to determine the MIC against bacteria was based on the CLSI document M7-A7.
For dermatophytes, serial dilutions of terbinafine, tolnaftate were prepared in a range of 0.004-2 μg/ml, while for miconazole concentrations ranged between 0.015-8 μg/ml. Finally, for essential oils, the concentrations tested were between 0.03-16 μg/ml. The only exception was tea tree oil where dilutions were prepared in a range of 0.0078-4 μg/ml. The MIC was read at 4 days post inoculation and defined as the lowest concentration of an agent to inhibit 80% of fungal growth as compared to the growth control (Table 2).

T. rubrum [3] = assay: Post-treatment insole assay, combination (FIG. 10); format: cell-based, Trichophyton rubrum; conditions: 0.01% tolnaftate, 3% tea tree oil, singly or combined
[4] = Trichophyton rubrum, terbinafine-resistant T. rubrum, n = 11

Structure (SMILES): Clc1ccc(COC(Cn2ccnc2)c2ccc(Cl)cc2Cl)c(Cl)c1 (centres unmarked) [Miconazole, miconazole]
- MFC Range (All Yeasts): 0.5 to 2 µg/mL

- MIC ([2]; Trichophyton rubrum, T. rubrum MRL 666): 16 µg/mL (≈ 54.9 µM)
- MIC ([2]; Trichophyton rubrum, T. rubrum MRL 670): 16 µg/mL (≈ 54.9 µM)
- MIC ([2]; Trichophyton rubrum, T. rubrum MRL 671): 4 µg/mL (≈ 13.7 µM)
- MIC ([2]; Trichophyton rubrum, T. rubrum MRL 1386): 4 µg/mL (≈ 13.7 µM)
- MIC ([2]; Trichophyton rubrum, T. rubrum MRL 1806): 4 µg/mL (≈ 13.7 µM)
- MIC ([2]; Trichophyton rubrum, T. rubrum MRL 1807): 4 µg/mL (≈ 13.7 µM)
- MIC ([2]; Trichophyton rubrum, T. rubrum MRL 1808): 16 µg/mL (≈ 54.9 µM)
- MIC ([2]; Trichophyton rubrum, T. rubrum MRL 1809): 16 µg/mL (≈ 54.9 µM)
- MIC ([2]; Trichophyton rubrum, T. rubrum MRL 1810): 4 µg/mL (≈ 13.7 µM)
- MIC ([2]; Trichophyton rubrum, T. rubrum MRL 2499): 4 µg/mL (≈ 13.7 µM)
- MIC ([2]; Trichophyton rubrum, T. rubrum MRL 2727): 2 µg/mL (≈ 6.86 µM)
- MIC50 [2, 4]: 4 µg/mL (≈ 13.7 µM)
- MIC90 [2, 4]: 16 µg/mL (≈ 54.9 µM)
- MIC Range ([2]; terbinafine-resistant T. rubrum, n = 11): 2 to 16 µg/mL
Structure (SMILES): CN(C/C=C/C#CC(C)(C)C)Cc1cccc2ccccc12 [Terbinafine, terbinafine]
- effect of pretreatment of insoles on fungal growth (T. rubrum [1]): did not result in any inhibition of fungal growth

Structure (SMILES): Cc1cccc(N(C)C(=S)Oc2ccc3ccccc3c2)c1 [Tolnaftate, tolnaftate]
- effect of post-contamination treatment of insoles on fungal growth (T. rubrum [3]): did not prevent growth of fungus
